From article PMC12073497 (Molecules, 2025)
“And” between values parts separate entries of the source, which are not always exact repeats. Equal entries are not always repeated.

Tested on: not listed separately
Assay: DPPH radical scavenging (antioxidant) assay
Type: biochemical
Details: means of triplicate ± SEM
Text: Oxidative stress is an imbalance between in vivo generated reactive oxygen/ nitrogen species (ROS/NOS) and the cellular antioxidant defenses. Oxidative stress is connected with more than one hundred illnesses that include cardiovascular, cancer, neurogenerative diseases, hypertension, atherosclerosis, and diabetes mellitus. Antioxidants decrease the cellular level of ROS and thus play a significant role in preventing related diseases. Antioxidants react with ROS through three possible mechanisms: (i) hydrogen transfer, (ii) electron transfer, and (iii) metal chelation. DPPH radical scavenging assay relies on the electron/hydrogen atom transfer (mixed) mechanism. The prepared crown ethers with variable cavity sizes 10a–d, parent precursor (FABE) 8, and the novel intermediate 7 were examined for antioxidant behavior using the DPPH radical scavenging protocol, following the literature, and the results are shown in Table 1.
Gulcin et al. proposed a method for the free radical scavenging activity (antioxidant activity) using 1,1-diphenyl-2-picryl-hydrazil (DPPH). An ethanolic solution of DPPH was prepared at a concentration of 0.3 mM. In the next step, different concentrations of each sample were prepared in ethanol, ranging from (62.5–500 μg) by mixing 5 microliters of each sample with 95 µL of DPPH solution. The resulting mixture was transferred to 96-well plates and incubated for 30 min at 37 °C. A microtiter plate reader (Spectramax plus 384 Molecular Device, San Jose, CA, USA) was used to measure the absorbance at 515 nm, and the radical scavenging activity (%) was compared with the methanol-treated control. The standard for the protocol was Butyl hydroxyanisole (BHA). DPPH scavenging effect (%) = Ac − As/Ac × 100, where Ac is the absorbance of the control (DMSO-treated), and As is the absorbance of the sample.

Row | Molecule | IC50
1 | CCCCOC(=O)/C(CCC=C(C)C)=C1\[C@@H](OC(C)=O)C[C@@]2(C)[C@@H]1CC(O)[C@@H]1[C@@]3(C)CCC(O)[C@@H](C)C3CC[C@@]12C (some centres unmarked) [Compound 8, Butyl(2Z)-2-[(4a,8a,14b,16b)-16-(acetyloxy)-3,11-dihydroxy-4,8,10,14-tetramethylgonan-17-ylidene]-6-methylhept-5-enoate] | 54.6 ± 0.2 µM
2 | CCCCOC(=O)C(CCC=C(C)C)=C1C(OC(C)=O)CC2(C)C1CC1OCCOCCOC3CCC4(C)C(CCC2(C)C14)C3C [Compound 10a, Butyl(2Z)-2-[(3aS,16S,17aS,17bS,18S)-16-(acetyloxy)-3a,17a,17b,18-tetramethyloctahydro-3,6 methanocyclopenta[3,4]naptho[1,8hi][1,4,7]trioxyacylotridecin-15(1H)-ylidene]-6-methylhept-5-enoate] | 65.5 ± 0.3 µM
3 | COc1ccc(O)cc1C(C)(C)C [Butylated hydroxyanisole, reference compound] | 44.2 ± 0.3 µM
4 | CCCCOC(O)(OC(=NC1CCCCC1)NC1CCCCC1)/C(CCC=C(C)C)=C1\[C@@H](OC(C)=O)C[C@@]2(C)[C@H]1C[C@@H](O)[C@H]1[C@@]3(C)CC[C@@H](O)[C@@H](C)[C@@H]3CC[C@@]12C (some centres unmarked) [Intermediate 7] | 32.9 ± 0.4 µM
5 | Butyl(2Z)-2-[(3aS,27S,28aS,28bS,29S)-27-(acetyloxy)-3a,28a,28b,29-tetramethyltetracosahydro-3,6-methanocyclopenta[3,4] naphtho[1,8-st][1,3,6,9,12,15,18]heptaoxacyclotetracosin-26(1H)-ylidene]-6- methylhept-5-enoate [Compound 10d] | 45.4 ± 0.9 µM
6 | CCCCOC(=O)/C(CCC=C(C)C)=C1/C2CC3OCCOCCOCCOCCOC4CC[C@@]5(C)C(CC[C@@](C)(C35)[C@@]2(C)C[C@@H]1OC(C)=O)[C@@H]4C (stereo partly drawn) [Compound 10c, Butyl(2Z)-2-[(3aS,22S,23aS,23bS,24S)-22-(acetyloxy)-3a,23a,23b,24-tetramethyldocosahydro-3,6-methanocyclopenta[3,4]naphtho[1,8-no][1,4,7,10,13]pentaoxacyclononadecin-21(1H)-ylidene]-6-methylhept-5-enoate] | 32.1 µM and 22.5 µM
7 | CCCCOC(=O)/C(CCC=C(C)C)=C1/C2CC3OCCOCCOCCOC4CC[C@@]5(C)C(CC[C@@](C)(C35)[C@@]2(C)C[C@@H]1OC(C)=O)[C@@H]4C (stereo partly drawn) [Compound 10b, Butyl(2Z)-2-[(3aS,19S,20aS,20bS,21S)-19-(acetyloxy)-3a,20a,20b,21-tetramethylicosahydro-3,6-methanocyclopenta[3,4]naphtho[1,8-kl][1,4,7,10]tetraoxacyclohexadecin-18(1H)-ylidene]-6-methylhept-5-enoate] | 22.5 µM and 32.1 µM

Molecular target: α-glucosidase (Sigma, type III, from yeast) (Saccharomyces cerevisiae, UniProt P53341)
Assay: α-Glucosidase inhibition assay
Type: biochemical
Details: means of triplicate ± SEM
Procedure: In this background, according to the standard protocol [51], we examined the prepared crown ether molecules 10a–d along with parent precursor FABE 8 and the novel intermediate 7 for their in vitro α-glucosidase inhibition potential.
The protocol for the α-Glucosidase inhibition assay is built on the formation of product as a result of substrate breakdown, detected by absorbance measurement [69]. In the first step, an enzyme α-glucosidase (Sigma, type III, from yeast) was prepared in buffer solution A (0.1 mol/L potassium phosphate, 3.2 mmol/L-MgCl2, pH = 6.8) (0.1 units/mL) mixed with p-nitrophenyl-α-D-glucopyranoside dissolved to obtain the desired concentration of substrate of 6 mmol/L. Another Buffer solution B (102 µL) was prepared by mixing (0.5 M KH2PO4, 16 mmol/L-MgCl2, pH = 6.8) along with 120 µL of sample solution (0.6 mg/mL in dimethyl sulfoxide), 282 µL of water and 200 µL of substrate. In the next step, 200 µL of enzyme was added in the same reaction mixture, incubated for 5 min at 37 °C. […] The activity of enzyme inhibition was measured at 410 nm by its absorbance. […] The inhibition% is equal to Ac − As/Ac × 100, where Ac is the absorbance (control), and As is the absorbance (Sample).

Chain of α-glucosidase (Sigma, type III, from yeast) (P53341 whole entry): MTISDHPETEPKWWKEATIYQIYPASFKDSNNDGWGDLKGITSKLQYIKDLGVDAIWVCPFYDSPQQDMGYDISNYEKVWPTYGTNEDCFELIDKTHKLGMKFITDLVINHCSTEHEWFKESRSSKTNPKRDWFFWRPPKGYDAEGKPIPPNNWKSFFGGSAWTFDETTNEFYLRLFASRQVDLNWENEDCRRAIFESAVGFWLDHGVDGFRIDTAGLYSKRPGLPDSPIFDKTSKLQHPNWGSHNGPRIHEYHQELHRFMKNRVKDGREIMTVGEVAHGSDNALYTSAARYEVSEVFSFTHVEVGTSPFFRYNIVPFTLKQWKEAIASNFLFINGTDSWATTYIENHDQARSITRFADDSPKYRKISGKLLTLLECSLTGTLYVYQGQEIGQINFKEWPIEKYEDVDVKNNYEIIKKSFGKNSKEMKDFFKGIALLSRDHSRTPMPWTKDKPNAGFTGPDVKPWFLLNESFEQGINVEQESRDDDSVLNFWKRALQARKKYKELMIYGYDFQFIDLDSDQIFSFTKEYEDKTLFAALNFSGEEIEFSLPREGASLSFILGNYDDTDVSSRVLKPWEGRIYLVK

Row | Molecule | IC50
8 | Butyl(2Z)-2-[(3aS,27S,28aS,28bS,29S)-27-(acetyloxy)-3a,28a,28b,29-tetramethyltetracosahydro-3,6-methanocyclopenta[3,4] naphtho[1,8-st][1,3,6,9,12,15,18]heptaoxacyclotetracosin-26(1H)-ylidene]-6- methylhept-5-enoate [Compound 10d] | 54.3 ± 0.1 µM
